molecular target: hNav1.7 (Homo sapiens (Human), UniProt Q15858); settings: voltage-gated sodium channel blocking activity against hNav1.7
Sequence (Q15858 whole entry): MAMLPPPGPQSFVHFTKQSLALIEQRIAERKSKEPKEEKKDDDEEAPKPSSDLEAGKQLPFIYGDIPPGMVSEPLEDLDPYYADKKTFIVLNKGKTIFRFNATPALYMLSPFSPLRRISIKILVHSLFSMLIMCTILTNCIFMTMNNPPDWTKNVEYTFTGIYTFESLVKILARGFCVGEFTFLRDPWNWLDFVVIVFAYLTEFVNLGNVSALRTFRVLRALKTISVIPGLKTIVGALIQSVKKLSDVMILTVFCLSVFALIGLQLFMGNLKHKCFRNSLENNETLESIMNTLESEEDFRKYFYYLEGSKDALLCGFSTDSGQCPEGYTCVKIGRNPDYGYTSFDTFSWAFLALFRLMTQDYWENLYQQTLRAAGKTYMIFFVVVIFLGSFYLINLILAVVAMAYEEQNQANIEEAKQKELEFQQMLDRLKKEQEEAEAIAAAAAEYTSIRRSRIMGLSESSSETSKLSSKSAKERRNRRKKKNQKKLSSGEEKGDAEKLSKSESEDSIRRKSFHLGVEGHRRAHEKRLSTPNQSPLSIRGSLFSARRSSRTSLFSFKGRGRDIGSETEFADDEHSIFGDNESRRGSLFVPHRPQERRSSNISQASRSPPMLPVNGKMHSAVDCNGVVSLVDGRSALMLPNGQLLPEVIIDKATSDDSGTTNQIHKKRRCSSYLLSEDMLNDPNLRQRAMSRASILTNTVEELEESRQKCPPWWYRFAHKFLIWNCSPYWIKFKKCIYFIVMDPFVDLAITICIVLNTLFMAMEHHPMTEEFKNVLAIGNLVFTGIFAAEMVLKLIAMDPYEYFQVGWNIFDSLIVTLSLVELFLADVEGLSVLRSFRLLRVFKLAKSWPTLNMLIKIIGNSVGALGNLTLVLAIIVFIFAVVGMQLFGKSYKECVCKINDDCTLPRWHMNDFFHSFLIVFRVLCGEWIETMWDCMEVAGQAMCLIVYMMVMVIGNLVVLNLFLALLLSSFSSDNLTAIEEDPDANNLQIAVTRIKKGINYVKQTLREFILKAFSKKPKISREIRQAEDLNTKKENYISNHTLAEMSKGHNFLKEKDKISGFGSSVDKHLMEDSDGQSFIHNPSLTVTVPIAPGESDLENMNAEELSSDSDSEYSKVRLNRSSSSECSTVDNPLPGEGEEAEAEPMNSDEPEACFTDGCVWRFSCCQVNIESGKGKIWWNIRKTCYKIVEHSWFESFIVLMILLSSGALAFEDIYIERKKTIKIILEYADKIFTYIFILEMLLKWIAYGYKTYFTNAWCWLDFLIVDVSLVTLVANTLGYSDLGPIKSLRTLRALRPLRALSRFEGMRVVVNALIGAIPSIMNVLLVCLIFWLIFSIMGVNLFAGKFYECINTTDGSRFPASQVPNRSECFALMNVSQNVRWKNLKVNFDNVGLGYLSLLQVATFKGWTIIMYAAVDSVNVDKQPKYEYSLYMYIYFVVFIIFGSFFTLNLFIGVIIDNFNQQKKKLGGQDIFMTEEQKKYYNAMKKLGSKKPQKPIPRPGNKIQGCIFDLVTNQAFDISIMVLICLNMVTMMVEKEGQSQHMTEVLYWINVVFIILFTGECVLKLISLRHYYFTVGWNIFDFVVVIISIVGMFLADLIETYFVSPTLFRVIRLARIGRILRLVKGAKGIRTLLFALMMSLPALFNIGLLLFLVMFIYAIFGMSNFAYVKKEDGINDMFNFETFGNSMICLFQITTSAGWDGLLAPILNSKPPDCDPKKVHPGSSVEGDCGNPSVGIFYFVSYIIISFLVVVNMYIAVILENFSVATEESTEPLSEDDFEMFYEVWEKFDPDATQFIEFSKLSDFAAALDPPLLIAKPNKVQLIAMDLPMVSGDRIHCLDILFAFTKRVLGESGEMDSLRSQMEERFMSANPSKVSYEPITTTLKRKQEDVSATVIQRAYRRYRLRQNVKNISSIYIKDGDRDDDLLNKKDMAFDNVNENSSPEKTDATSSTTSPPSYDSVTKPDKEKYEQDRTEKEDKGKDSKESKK

Which IC50 does the source give for `O=C1N(Cc2ccc(C(F)(F)F)o2)c2ccccc2C12COc1cc3c(cc12)OCO3` (centres unmarked) [(I), 1′-{[5-(trifluoromethyl)-2-furyl]methyl}spiro[furo[2,3-f][1,3]benzodioxole-7,3′-indol]-2′(1′H)-one] here?
Its IC50 is 7 nM.

Which IC50 does the source give for `O=C1N(Cc2ccc(C(F)(F)F)o2)c2ccccc2[C@@]12COc1cc3c(cc12)OCO3` [(I-R), (R)-1′-{[5-(trifluoromethyl)furan-2-yl]methyl}spiro[furo[2,3-f][1,3]-benzodioxole-7,3′-indol]-2′(1′H)-one] here?
Its IC50 is 4200 nM.

For `O=C1N(Cc2ccc(C(F)(F)F)o2)c2ccccc2[C@]12COc1cc3c(cc12)OCO3` [(I-S), (S)-1′-{[5-(trifluoromethyl)furan-2-yl]methyl}spiro-[furo[2,3-f][1,3]benzodioxole-7,3′-indol]-2′(1′H)-one], which IC50 is on record?
Its IC50 is 3 nM.

`O=C1N(Cc2ncccc2C(F)(F)F)c2ccccc2C12COc1cc3c(cc12)OCCO3` (centres unmarked) [(II), 1′-{[3-(trifluoromethyl)pyridin-2-yl]methyl}-2,3-dihydrospiro[furo[2,3-g][1,4]benzodioxine-8,3′-indol]-2′(1′H)-one] was tested. Which IC50 did it give?
Its IC50 is 15 nM.

`O=C1N(Cc2ncccc2C(F)(F)F)c2ccccc2[C@]12COc1cc3c(cc12)OCCO3` [(II-S), (S)-1′-{[3-(trifluoromethyl)pyridin-2-yl]methyl}-2,3-dihydrospiro[furo[2,3-g][1,4]benzodioxine-8,3′-indol]-2′(1′H)-one] was tested. Which IC50 did it give?
Its IC50 is 5 nM.

From patent US9260446B2, “Synthetic methods for spiro-oxindole compounds” (Xenon Pharmaceuticals Inc., priority 2009, dated 2016)
